Among the data in ChEMBL document CHEMBL1201862, “PubChem BioAssay data set” (2004) are IC50 values, retold here.

The source made the active and inactive calls.

One assay addresses T1, Exodeoxyribonuclease V (Escherichia coli (strain K12), UniProt P04993+P07648+P08394).
T1 sequence (P04993 whole entry): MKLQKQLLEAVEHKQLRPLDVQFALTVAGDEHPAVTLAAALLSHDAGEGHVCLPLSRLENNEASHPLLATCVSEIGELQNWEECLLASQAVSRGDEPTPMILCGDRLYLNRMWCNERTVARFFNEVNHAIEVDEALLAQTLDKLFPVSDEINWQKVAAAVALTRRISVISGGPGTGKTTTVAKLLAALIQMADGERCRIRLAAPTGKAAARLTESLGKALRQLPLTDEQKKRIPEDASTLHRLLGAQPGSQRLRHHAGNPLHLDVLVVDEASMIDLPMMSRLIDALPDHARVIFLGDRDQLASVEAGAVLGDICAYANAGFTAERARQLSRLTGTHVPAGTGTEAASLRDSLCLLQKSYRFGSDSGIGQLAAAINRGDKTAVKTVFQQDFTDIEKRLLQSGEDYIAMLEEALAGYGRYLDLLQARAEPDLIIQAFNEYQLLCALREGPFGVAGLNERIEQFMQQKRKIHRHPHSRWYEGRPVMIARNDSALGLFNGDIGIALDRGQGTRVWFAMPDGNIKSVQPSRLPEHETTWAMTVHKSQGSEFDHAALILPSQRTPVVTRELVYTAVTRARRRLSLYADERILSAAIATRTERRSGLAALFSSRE
T1 sequence (P07648 whole entry): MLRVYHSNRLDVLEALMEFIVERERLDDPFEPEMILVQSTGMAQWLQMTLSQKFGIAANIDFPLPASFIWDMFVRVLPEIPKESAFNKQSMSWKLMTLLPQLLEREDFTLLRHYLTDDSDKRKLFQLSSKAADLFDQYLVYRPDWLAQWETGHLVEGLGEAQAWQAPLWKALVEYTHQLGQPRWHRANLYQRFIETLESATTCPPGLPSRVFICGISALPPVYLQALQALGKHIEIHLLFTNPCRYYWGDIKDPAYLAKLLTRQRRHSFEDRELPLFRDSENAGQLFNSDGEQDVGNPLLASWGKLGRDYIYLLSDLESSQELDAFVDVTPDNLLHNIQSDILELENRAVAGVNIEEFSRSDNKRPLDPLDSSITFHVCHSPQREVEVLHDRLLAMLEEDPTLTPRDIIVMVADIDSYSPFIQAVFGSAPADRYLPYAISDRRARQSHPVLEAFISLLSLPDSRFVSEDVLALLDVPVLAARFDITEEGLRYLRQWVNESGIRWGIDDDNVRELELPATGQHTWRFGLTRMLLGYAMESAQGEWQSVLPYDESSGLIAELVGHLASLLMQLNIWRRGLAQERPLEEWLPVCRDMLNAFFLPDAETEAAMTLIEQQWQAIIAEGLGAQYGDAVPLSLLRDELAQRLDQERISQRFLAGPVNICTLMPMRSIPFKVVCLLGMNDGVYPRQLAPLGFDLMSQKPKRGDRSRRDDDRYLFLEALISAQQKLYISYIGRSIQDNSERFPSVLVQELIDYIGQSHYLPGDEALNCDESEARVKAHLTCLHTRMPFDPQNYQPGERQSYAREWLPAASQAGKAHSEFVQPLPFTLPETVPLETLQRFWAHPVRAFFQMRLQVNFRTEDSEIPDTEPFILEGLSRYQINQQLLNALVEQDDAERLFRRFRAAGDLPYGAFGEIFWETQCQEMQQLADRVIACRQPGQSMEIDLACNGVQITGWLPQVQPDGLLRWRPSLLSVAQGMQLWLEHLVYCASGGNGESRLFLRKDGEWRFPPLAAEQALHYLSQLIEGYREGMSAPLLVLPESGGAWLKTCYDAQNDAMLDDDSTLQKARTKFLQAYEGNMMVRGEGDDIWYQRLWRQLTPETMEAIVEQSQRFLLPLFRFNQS
T1 sequence (P08394 whole entry): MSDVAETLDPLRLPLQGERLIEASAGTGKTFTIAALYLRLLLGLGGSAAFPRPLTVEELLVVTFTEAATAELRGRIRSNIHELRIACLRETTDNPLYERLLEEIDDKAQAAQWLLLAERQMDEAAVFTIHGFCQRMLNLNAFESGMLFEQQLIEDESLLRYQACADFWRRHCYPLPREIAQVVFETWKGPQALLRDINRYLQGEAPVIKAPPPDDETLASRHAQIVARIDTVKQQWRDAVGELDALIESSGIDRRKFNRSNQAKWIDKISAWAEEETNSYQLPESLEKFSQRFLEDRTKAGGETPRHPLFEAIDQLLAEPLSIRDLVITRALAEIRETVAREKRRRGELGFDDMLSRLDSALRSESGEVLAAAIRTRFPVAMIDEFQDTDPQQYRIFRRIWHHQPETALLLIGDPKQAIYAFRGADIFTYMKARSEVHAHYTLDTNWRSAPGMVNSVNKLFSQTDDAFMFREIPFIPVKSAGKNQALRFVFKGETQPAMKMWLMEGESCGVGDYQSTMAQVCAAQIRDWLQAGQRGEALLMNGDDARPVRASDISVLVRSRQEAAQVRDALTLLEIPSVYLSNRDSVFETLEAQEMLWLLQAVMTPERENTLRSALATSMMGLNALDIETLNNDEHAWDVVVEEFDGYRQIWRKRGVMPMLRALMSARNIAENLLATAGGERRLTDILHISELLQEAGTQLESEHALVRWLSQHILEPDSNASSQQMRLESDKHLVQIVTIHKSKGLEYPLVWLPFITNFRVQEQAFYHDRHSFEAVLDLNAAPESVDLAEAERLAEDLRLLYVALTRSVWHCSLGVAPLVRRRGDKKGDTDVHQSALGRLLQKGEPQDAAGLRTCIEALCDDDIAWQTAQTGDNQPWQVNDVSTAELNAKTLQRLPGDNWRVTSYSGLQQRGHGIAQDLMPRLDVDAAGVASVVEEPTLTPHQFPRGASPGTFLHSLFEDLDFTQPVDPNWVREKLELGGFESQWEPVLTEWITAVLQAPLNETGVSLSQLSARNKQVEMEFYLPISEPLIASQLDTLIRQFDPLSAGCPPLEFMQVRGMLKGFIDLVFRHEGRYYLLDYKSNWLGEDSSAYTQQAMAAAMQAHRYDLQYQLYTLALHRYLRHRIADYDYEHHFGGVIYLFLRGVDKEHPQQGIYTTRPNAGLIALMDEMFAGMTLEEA
Nature of the assay: E. coli RecBCD inhibitors, dose response, counter-screen for AddAB inhibitor project, absorbance, V66 E. coli, mutant T4 phage (AID 492957). The class given is functional, cell-based, Escherichia coli str. K-12 substr. MG1655. In general terms: A counterscreen serves to expose hits that act by an unwanted route or on another target.

Assay [1] addresses T2, Sentrin-specific protease 8 (Homo sapiens, UniProt Q96LD8).
T2 sequence (Q96LD8 whole entry): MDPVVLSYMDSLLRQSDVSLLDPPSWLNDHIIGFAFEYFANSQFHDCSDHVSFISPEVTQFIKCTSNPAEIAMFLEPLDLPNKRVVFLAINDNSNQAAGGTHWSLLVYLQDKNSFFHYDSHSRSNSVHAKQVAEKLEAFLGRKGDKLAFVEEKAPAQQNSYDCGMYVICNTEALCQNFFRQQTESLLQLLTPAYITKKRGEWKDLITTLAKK
It counts as functional.

Take `O=C(Cc1ccc([N+](=O)[O-])cc1)N/N=C/c1ccc([N+](=O)[O-])o1`: the IC50 on Exodeoxyribonuclease V was > 39.5 µM (inactive). With `NS(=O)(=O)c1ccc(NC(=O)COC(=O)c2ccc([N+](=O)[O-])s2)cc1`, in assay [1], the IC50 is 4.33 µM (active). Turning to `CCCCNc1cc(NC(C)=O)cc2cc(OC)c(OC)cc12`, the IC50 in assay [1] was 18.3 µM (active).

Take `COc1ccc(C(NC(=O)C(C)C)c2ccc3cccnc3c2O)cc1` (centres undefined): on Exodeoxyribonuclease V, the IC50 is > 119 µM (inactive).

As usually defined, the IC50 is the concentration at which inhibition is half-maximal.
